Results: patent US20100247489A1, “USE OF A COMPOSITION MADE OF MINERAL NUTRIENTS AND OPTIONALLY ACETOGENIC AND/OR BUTYROGENIC BACTERIA IN ORDER TO AVOID OR REDUCE THE FORMATION OF GAS IN THE LARGE INTESTINE OF A MAMMAL AND THE RESULTING ABDOMINAL PROBLEMS” (priority 2006, published 2010)

Columns and labels:
[1] = system: Feces samples from 20 persons; assay: Incubation of homogenized feces samples with fructose and minerals, gas-meter (Example 3); set-up: species or system human; settings: 1 g fructose per 100 g of feces; for reduction in the amount of gas, in words: 20 feces samples; for amounts of gas: incubated at 37°, control 150 ml
Protocol: The incubation containers were all added with 1 g fructose per 100 g of feces, and additionally with 1. Selenium 20 μg; 2. 40 μg tungsten, 3. […] 20 μg Selenium plus 40 μg molybdenum; 6. 40 μg Selenium plus 20 μg tungsten plus 1 drop multivitamin solution “Multibionta”, 7. 40 μg Selenium plus 20 μg tungsten plus 1 drop multivitamin solution “Multibionta” plus 1 mg of iron plus 20 μg nickel. A control tank was added only with fructose.
The incubation containers were fitted with a gas-meter, sealed gas-tight and incubated at 37°.

meteorism = assay: Person with meteorism after fiber-rich meals (Examples 15 and 16); type: in vivo, human; settings: 1.5 mg three times daily in water, after one week of treatment
Protocol: A person who suffers from meteorism after eating fiber-rich meals is treated three times daily with 1.5 mg of sodium tungstate, which is dissolved in water administered with the drinking fluid during the main meals.
A person who suffers from meteorism after eating fiber-rich meals is treated three times daily with 1.5 mg of sodium tungstate, which is dissolved in 100 ml water with the addition of 100 mg phytic acid and is allowed to rest for 30 minutes, and is administered to the main meals with the drinking fluid.

| Compound | reduction in the amount of gas, in words [1] | amounts of gas [1] | meteorism (meteorism) |
| --- | --- | --- | --- |
| [W] [W, tungsten] | significant gas reduction | 100 mL | – |
| [Na+].[Na+].[O]=[W](=[O])([O-])[O-] [sodium tungstate] | – | – | significantly decreases |
| Selenium | significant gas reduction | 110 mL | – |
